Data published in patent US6211227A, “Tricyclic compounds” (Kyowa Hakko Kogyo Co., Ltd., priority 1997, dated 2001).
Like-named read-outs stand apart in the source and are kept apart here.

Legend:
[1] = tested on: detrusor muscle (isolated urinary bladder strips); experiment: Relaxation of rhythmic contraction induced by 15 mmol/l KCl in isolated urinary bladder strips (Test Example 2); parameters: species or system guinea pig (male albino Hartley); conditions: Cavia porcellus; KCl 15 mmol/l; cumulative, contact time 15-30 minutes; 50% relaxant of maximum response
Text: (§1) The activity of Compounds (I) as therapeutic agents for pollakiuria and urinary incontinence is described below. In the following Test Examples 1 and 2, IC50 value was defined as the concentration at which a test compound produces 50% relaxant of maximum response of detrusor muscle.
(§2) Male albino Hartley guinea pigs (350-550 g) were used as test animals. Each animal was exsanguinated to death under sodium pentobarbital anesthesia. The lower abdominal cavity was opened and its bladder was positioned. The connective tissue and the fat tissue around the bladder were removed, and the bladder was washed. After bilateral pelvic nerves on the surface of the abdominal side of the bladder were dissected, the bladder was taken out on the entrance of ureter. The bladder was washed with a Krebs-Henseleit buffer [composition (mM): NaCl 118, KCl 4.7, MgSO4 1.2, KH2 PO4 1.2, CaCl2 2.5, NaHCO3 25, and D-glucose 11.1], and then put on a gauze patch soaked in the buffer in a Petri dish. The dome and the trigone of the bladder were cut away. The back of the bladder was cut vertically in the middle with scissors, and the bladder was put flat on the gauze patch. The mucosa of the bladder was removed. The back of the bladder was cut vertically to get 6 strips which are ca. 2.0 mm wide and ca. 10 mm long.
(§3) Each strip was tied at one end to plastic rod and placed in a 20 ml organ bath containing a Krebs-Henseleit solution which was maintained at 37° C. and bubbled vigorously with a gas mixture of 5% CO2 and 95% O2. The pH of the solution was adjusted to about 7.4. The other end of the strip was tied via silk thread to a force displacement transducer (NIHON KODEN TB-611T). The transducer was connected to a polygraph (NIHON KODEN AP-621G), and the changes in tension were recorded on a recorder (YOKOGAWA type 3066). The polygraph was graduated by 0.5 g/cm.
Isolated urinary bladder strips were prepared in the same manner as in Test Example 1, and the tension of the preparation was measured. After the tension of the tissue was adjusted to be a steady state at 1 g, 15 mmol/l KCl was applied. After the rhythmic contraction was confirmed to appear by KCl, the tissue was washed. Then, 15 mmol/l KCl was applied again. After the rhythmic contraction induced by KCl became constant, a test compound was applied by the cumulative method (half-logarithmic increment). The contact time at each concentration was 15-30 minutes. The activity of the compound was expressed as the maximum relaxation rate (%) against the tension induced by the agonist.

bladder = experiment: animal or person; conditions: Rattus norvegicus, po, read-out: Contraction interval
Method: Male SD strain rats (200-300 g) were used as test animals. Each animal was anesthetized by intraperitoneally administering 50 mg/kg Nembutal. The hair on the abdomen, the thigh, and the back of the neck was shaved, followed by disinfection with 70% ethanol. The left femoral artery of the rat was exposed by incising the thigh for the insertion of a catheter into the femoral artery. A catheter filled with physiological saline containing heparin (1000 units/ml) was introduced approximately 2-3 cm into the artery so that its tip resided in the abdominal artery. The distal end of the catheter was exteriorized at the nape of the neck, sealed, and fixed on the skin tightly. A bladder catheter was implanted according to the method of Yaksh, et al., [Am. J. Physiol., vol.251, R1177-1185 (1986)]. The bladder was exposed through a midline abdominal incision. The bladder dome was given a small incision to make a small hole. A catheter filled with physiological saline was placed into the bladder and secured with a silk ligature. The other end of the catheter was exteriorized at the nape of the neck after being passed under the skin using a trocar. The exposed end of the catheter was sealed and fixed on the skin tightly. The abdominal muscles and skin were sutured, and the test animal was recovered from anesthesia.
The rat was weighed 24-48 hours after the operation. Each rat was placed in a Bollman cage (NATSUME SEISAKUSHO), and the test was done under partial restraint. The arterial catheter was connected to a pressure transducer (NIHON KODEN DX-300) used for the measurement of blood pressure. The bladder catheter was connected to a sylinge pump for physiological saline infusion and to a pressure transducer with PE50 tubing and a three-way stop-cock. Intravesical physiological saline infusion (0.05 ml/minute) was started and continued during the test. The changes of blood pressure, heart rate, and intravesical pressure were recorded with a polygraph (NIHON KODEN). The test animal was allowed to equilibration (for ca. 60-120 minutes) until its micturition pattern became constant. At this point, a basal value of each test parameter was recorded, and the rat was compulsorily given a test compound (in 0.3% carboxymethyl cellulose-physiological saline) at a dose of 1 mg/kg (body weight) by oral administration. […] As a control compound, cromakalim was used. The contraction interval, the systemic blood pressure, and the heart rate were measured for 5 hours after the administration of the compound at one-hour intervals and were expressed as the relative values based on the pre-administration values which were regarded as 100.

[2] = tested on: detrusor muscle (isolated urinary bladder strips); experiment: Relaxation of contraction induced by 50 mmol/l KCl in isolated urinary bladder strips (Test Example 1); parameters: species or system guinea pig (male albino Hartley); conditions: Cavia porcellus, 0.5 h; KCl 50 mmol/l; cumulative, contact time 30 minutes; 50% relaxant of maximum response
Text: as §1, §2, §3
After the tissue was incubated in the buffer for 15 minutes without preloading, tension was added thereto for about one hour. The preloading tension added was 1.5 g and it was relaxed to about 1 g. The strips were allowed to equilibrate until their contractions became constant and tension was adjusted to 1 g. After this equilibrium period, 50 mmol/l KCl (the whole content in the bath) was added, and the tissue was washed 10 minutes later. KCl was added to the tissue at intervals of 30 minutes, followed by washing 10 minutes later, and KCl was applied repeatedly until the developed tension induced by KCl becomes constant. When the tissue was confirmed to contract constantly by the application of KCl and relax to the steady state after washing, 50 mmol/l KCl was applied again. After the tissue reached the steady state and the base line was obtained, a test compound was applied by the cumulative method (half-logarithmic increment). The contact time at each concentration was 30 minutes. The activity of the compound was expressed as the maximum relaxation rate (%) against the tension induced by the agonist.

Structure (SMILES)	IC50 [1] [µM]	response vs control in vivo at 1 mg/kg (bladder; 1 h) [%]	response vs control in vivo at 1 mg/kg (bladder; 2 h) [%]	response vs control in vivo at 1 mg/kg (bladder; 3 h) [%]	response vs control in vivo at 1 mg/kg (bladder; 4 h) [%]	response vs control in vivo at 1 mg/kg (bladder; 5 h) [%]	IC50 [2] [µM]
CC(O)(C(=O)Nc1ccc2c(c1)S(=O)(=O)Cc1ccc(F)cc1C2=O)C(F)(F)F (stereo not drawn) [Compound 1-22, 5,5-Dioxo-9-fluoro-3-(3,3,3-trifluoro-2-hydroxy-2-methylpropanoylamino)-6,11-dihydrodibenzo[b,e]thiepin-11-one]	6.5	–	–	–	–	–	–
CC(O)(C(=O)Nc1cccc2c1C(=O)c1cccc(F)c1CS2(=O)=O)C(F)(F)F (stereo not drawn) [Compound 1-19, 5,5-Dioxo-7-fluoro-1-(3,3,3-trifluoro-2-hydroxy-2-methylpropanoylamino)-6,11-dihydrodibenzo[b,e]thiepin-11-one]	4.3	114 ± 9	139 ± 7	136 ± 11	145 ± 6	167 ± 15	–
CC(O)(C(=O)Nc1ccc2c(c1)S(=O)(=O)Cc1occc1C2=O)C(F)(F)F (stereo not drawn) [Compound 1-8, 9,9-Dioxo-7-(3,3,3-trifluoro-2-hydroxy-2-methylpropanoylamino)-4,10-dihydrofuro[2,3-c][1]benzothiepin-4-one]	7.5	–	–	–	–	–	–
CC(O)(C(=O)Nc1cccc2c1C(=O)c1ccccc1CS2(=O)=O)C(F)(F)F (stereo not drawn) [Compound 1-3, 5,5-Dioxo-1-(3,3,3-trifluoro-2-hydroxy-2-methylpropanoylamino)-6,11-dihydrodibenzo[b,e]thiepin-11-one]	6.3	123 ± 15	135 ± 11	144 ± 10	160 ± 19	160 ± 16	> 10
CC(O)(C(=O)Nc1ccc2c(c1)S(=O)(=O)Cc1ccccc1C2=O)C(F)(F)F (stereo not drawn) [Compound 1-4, 5,5-Dioxo-3-(3,3,3-trifluoro-2-hydroxy-2-methylpropanoylamino)-6,11-dihydrodibenzo[b,e]thiepin-11-one]	3.2	–	–	–	–	–	4.5
CC1(C)Oc2ccc(C#N)cc2C(N2CCCC2=O)C1O (stereo not drawn) [Cromakalim, cromakalim, reference compound]	–	124	133	142	133	133	–
CC(O)(C(=O)Nc1cccc2c1C(=O)c1ccsc1CS2(=O)=O)C(F)(F)F (stereo not drawn) [Compound 1-5, 9,9-Dioxo-5-(3,3,3-trifluoro-2-hydroxy-2-methylpropanoylamino)-4,10-dihydrothieno[2,3-c][1]benzothiepin-4-one]	4	–	–	–	–	–	8.7
O=C1c2sccc2CS(=O)(=O)c2cccc(NC(=O)C3CCCO3)c21 (stereo not drawn) [Compound 3-9, 5,5-Dioxo-9-(2-tetrahydrofuroylamino)-4,10-dihydrothieno[3,2-c][1]benzothiepin-10-one]	> 10	122 ± 7	128 ± 16	129 ± 18	150 ± 19	160 ± 21	–
CC(O)(C(=O)Nc1ccc(Cl)c2c1C(=O)c1sccc1CS2(=O)=O)C(F)(F)F (stereo not drawn) [Compound 1-33, 6-Chloro-5,5-dioxo-9-(3,3,3-trifluoro-2-hydroxy-2-methylpropanoylamino)-4,10-dihydrothieno[3,2-c][1]benzothiepin-10-one]	0.7	124 ± 15	137 ± 15	137 ± 4	142 ± 10	148 ± 21	–
CC(O)(C(=O)Nc1cccc2c1C(=O)c1cccnc1CS2(=O)=O)C(F)(F)F (stereo not drawn) [Compound 1-14, 10,10-Dioxo-6-(3,3,3-trifluoro-2-hydroxy-2-methylpropanoylamino)-5,11-dihydro[1]benzothiepino[3,4-b]pyridin-5-one]	> 10	–	–	–	–	–	–
COc1ccc2c(c1)CS(=O)(=O)c1cccc(NC(=O)C(C)(O)C(F)(F)F)c1C2=O (stereo not drawn) [Compound 1-24, 5,5-Dioxo-8-methoxy-1-(3,3,3-trifluoro-2-hydroxy-2-methylpropanoylamino)-6,11-dihydrodibenzo[b,e]thiepin-11-one]	> 10	140 ± 11	121 ± 17	160 ± 19	169 ± 25	169 ± 25	–
CC(C)(O)C(=O)Nc1cccc2c1C(=O)c1sccc1CS2(=O)=O [Compound 3-12, 5,5-Dioxo-9-(2-hydroxy-2-methylpropanoylamino)-4,10-dihydrothieno[3,2-c][1]benzothiepin-10-one]	> 10	118 ± 18	153 ± 20	152 ± 17	161 ± 26	165 ± 19	–
Cc1ccc(NC(=O)C(C)(O)C(F)(F)F)c2c1S(=O)(=O)Cc1ccsc1C2=O (stereo not drawn) [Compound 1-29, 5,5-Dioxo-6-methyl-9-(3,3,3-trifluoro-2-hydroxy-2-methylpropanoylamino)-4,10-dihydrothieno[3,2-c][1]benzothiepin-10-one]	2.4	–	–	–	–	–	–
CC(O)(C(=O)Nc1ccc(F)c2c1C(=O)c1sccc1CS2(=O)=O)C(F)(F)F (stereo not drawn) [Compound 1-35, 5,5-Dioxo-6-fluoro-9-(3,3,3-trifluoro-2-hydroxy-2-methylpropanoylamino)-4,10-dihydrothieno[3,2-c][1]benzothiepin-10-one]	2.5	115 ± 2	133 ± 12	131 ± 15	152 ± 4	148 ± 3	–
CC(O)(C(=O)Nc1cccc2c1C(=O)c1ccoc1CS2(=O)=O)C(F)(F)F (stereo not drawn) [Compound 1-7, 9,9-Dioxo-5-(3,3,3-trifluoro-2-hydroxy-2-methylpropanoylamino)-4,10-dihydrofuro[2,3-c][1]benzothiepin-4-one]	> 10	116 ± 9	138 ± 12	156 ± 17	155 ± 16	155 ± 17	–
CC(O)(C(=O)Nc1ccc2c(c1)C(=O)c1sccc1CS2(=O)=O)C(F)(F)F (stereo not drawn) [Compound 1-9, 5,5-Dioxo-8-(3,3,3-trifluoro-2-hydroxy-2-methylpropanoylamino)-4,10-dihydrothieno[3,2-c][1]benzothiepin-10-one]	> 10	129 ± 23	123 ± 10	143 ± 12	135 ± 16	130 ± 5	–
COc1ccc(NC(=O)C(C)(O)C(F)(F)F)c2c1S(=O)(=O)Cc1ccsc1C2=O (stereo not drawn) [Compound 1-28, 5,5-Dioxo-6-methoxy-9-(3,3,3-trifluoro-2-hydroxy-2-methylpropanoylamino)-4,10-dihydrothieno[3,2-c][1]benzothiepin-10-one]	> 10	127 ± 10	139 ± 7	133 ± 6	140 ± 3	145 ± 3	–
CCC(C)(O)C(=O)Nc1cccc2c1C(=O)c1sccc1CS2(=O)=O (stereo not drawn) [Compound 3-14, 5,5-Dioxo-9-(2-hydroxy-2-methylbutanoylamino)-4,10-dihydrothieno[3,2-c][1]benzothiepin-10-one]	> 10	–	–	–	–	–	–
